Our source for the viability values is paper PMC12040169 (PLOS Biology, 2025).

The series is described as follows: in vitro. The settings on record: human, hela cells, % viability.

Consider `c1nc(Sc2nccs2)cc(N2CCCC2)n1` [CBK093748], for which the viability at 28.5 h, 10 µM amounted to 100%. To `CCCCC(CC)CN1CNC(=S)NC1` (centres unmarked) [CBK265404] belongs 105%; to `Cc1cn(S(=O)(=O)N(C)C)nc1-c1ccccc1` [CBK005210], 89.9%; to `O=C(O)CCn1c2ccccc2c2cc(I)ccc21` [CBK262578], 97.5%. To `C=CCN1C(=O)CC2(C1=O)C(=O)N(CCCN1C(=O)c3ccccc3C1=O)c1ccc(Cl)cc12` (centres unmarked) [CBK075443] belongs 92.6%. To `C[C@H](Nc1cncc(-c2cccc(CO)c2)n1)c1ccccc1` [CBK065512] belongs 102%; to `O=C(O)CC(c1ccccc1)c1ccc2c(c1)OCO2` (centres unmarked) [CBK286983], 87.8%; to `CCCCn1c(SCC(=O)N(C)Cc2cnn(-c3ccccc3)c2)n[nH]c1=O` [CBK296732], 106%.

As to `Cc1csc2ncc(C(=O)Nc3ccc(Cl)c(Cl)c3)c(=O)n12` [CBK287459], the viability at 28.5 h, 10 µM came out at 104%. To `O=C(c1nc2ccccc2s1)C1CCN(C(=O)c2ccco2)CC1` [CBK284234] belongs 83.6%. The figure for `Cc1cccc(C2(O)CCN(C(=O)c3ccc4nc(C)[nH]c4c3)CC2)c1` [CBK283299] is 102%. The figure for `COC1CCCC(C(=O)N2CCCC2c2nc3ccccc3[nH]2)C1` (centres unmarked) [CBK284007] is 101%; for `O=C(O)CC(Cc1ccc(Cl)cc1)C(=O)Nc1ccccc1I` (centres unmarked) [CBK262021] it is 90%. As for `Cc1ccc(N(Cc2ccccc2OC(=O)c2cccnc2)C2=NS(=O)(=O)c3ccccc32)cc1` [CBK265760], the viability at 28.5 h, 10 µM is 88.4%. To `CCCc1cc(=O)[nH]c(SCc2noc(-c3snnc3C)n2)n1` [CBK006474] belongs 87.4%; to `COc1cc2c(cc1OC)CN(C(=O)CSc1nnc3ccccn13)CC2` [CBK287814], 94.8%. To `O=C1NCC2(C/C=C/CCOc3ccccc31)CCN(C(=O)Cc1cccc(F)c1)CC2` [CBK292015] belongs 81%. To `Clc1nsnc1N1CCOCC1` [CBK019133] belongs 101%; to `O=C(O)CCC(=O)N1CCN(C(=O)c2ccco2)CC1` [CBK286533], 102%; to `COc1cc(OC)c(C(C)=O)c(OCCOc2nccnc2N2CCNCC2)c1` [CBK013497T], 95.8%. Take `COc1cc(CN2CCN(c3ccccn3)CC2)ccc1O` [CBK261537]: the viability at 28.5 h, 10 µM came out at 118%. Consider `O=C(OCCCc1cccnc1)c1cc(=O)[nH]c2ccccc12` [CBK295631], for which the viability at 28.5 h, 10 µM turned out to be 99.7%. Consider `O=C(O)CN1C(=O)S/C(=C\c2ccc([N+](=O)[O-])o2)C1=O` [CBK017858], for which the viability at 28.5 h, 10 µM turned out to be 97.7%. The figure for `c1ccc2cc(CCN3CCC(Oc4nccnc4OCCN4CCOCC4)CC3)ccc2c1` [CBK082942T] is 90.7%; for `c1ccc2c(-c3ccc(OC4CCNCC4)cc3)cncc2c1` [CBK126578] it is 112%. The figure for `COc1cc2c(cc1OC)C1=NNC(=O)C1=NC(C)(C)C2` [CBK288353] is 22.3%; for `CN1C2CCC1CC(OC(=O)c1cccnc1)C2` (centres unmarked) [CBK026000] it is 100%; for `O=C(O)CCN1C(=O)c2ccc(Oc3ccc([N+](=O)[O-])cc3)cc2C1=O` [CBK263357] it is 96.2%. The figure for `O=C(c1ccccc1)N1CCCC(c2cccc(Cc3ccc(Cl)cc3)n2)C1` (centres unmarked) [CBK286502] is 99.5%; for `O=C(CN(Cc1ccccc1)S(=O)(=O)c1ccc2c(c1)OCCO2)Nc1ccc2c(c1)OCCO2` [CBK262499] it is 98.5%; for `COc1ccc(CC(=O)NCC(=O)N2CCC3(CC2)NCCc2nc[nH]c23)cc1` [CBK287997] it is 110%.

For `CCCS(=O)(=O)N1CCCC(Cc2ccc(F)cc2F)(C(=O)OCC)C1` (centres unmarked) [CBK307221], the viability at 28.5 h, 10 µM was determined as 85.5%. The figure for `CCOC(=O)c1ccccc1NS(=O)(=O)c1cc(Cl)sc1Cl` [CBK045448] is 85.8%; for `O=C(NCC(c1ccco1)N1CCCC1)N1CCc2ccccc2C1` (centres unmarked) [CBK304392] it is 98.8%. For `CC(=O)Nc1ccc(CCNC(=O)NCc2nc(C3CC3)no2)cc1` [CBK306221], the viability at 28.5 h, 10 µM is 96.1%. To `C(=C\c1ccccc1)/CN1CCN(CCCc2ccccc2)CC1` [CBK261897] belongs 90%; to `CC(=O)Nc1cc(Cl)ccc1OS(=O)(=O)c1ccc(Cl)cc1` [CBK264992], 90.3%; to `CS(=O)(=O)c1cccc(C(=O)Nc2cnc(-c3ccc(F)c(Cl)c3)c(-c3cccnc3)n2)c1` [CBK036779], 101%. In the case of `COCc1cccc(-c2nccnc2OC)c1` [CBK106956], the viability at 28.5 h, 10 µM stood at 95.2%. To `CS(=O)(=O)Nc1nccnc1N1CCN(Cc2ccc([N+](=O)[O-])cc2)CC1` [CBK084274] belongs 103%. As for `CCOC(=O)CN1CCCN(c2c(F)cc(C#N)cc2F)CC1` [CBK304148], the viability at 28.5 h, 10 µM was 86.9%. Consider `CC[C@H]1CN(C(=O)N2CCOCC2)CC[C@H]1CC(=O)NCCOC` [CBK289134], for which the viability at 28.5 h, 10 µM turned out to be 100%. To `CCn1c2cc(C)sc2c2cnn(CC(=O)N(C)C)c(=O)c21` [CBK284173] belongs 85%; to `Cc1cc(OC(=O)C2CCC(CNC(=O)OC(C)(C)C)CC2)c2c3c(c(=O)oc2c1)CCCC3` (centres unmarked) [CBK083590], 102%. To `COc1cccc(NC(=O)CC(CN2CCN(Cc3ccccn3)CC2)C(=O)O)c1` (centres unmarked) [CBK286735] belongs 85.1%. To `COC(=O)CN1C(c2ccccc2O)Nc2ccc(Br)cc2C1c1ccccc1` (centres unmarked) [CBK263133] belongs 91.1%; to `O=C(COc1ccccc1)N1CCC(Oc2nccnc2OCc2ccc(Cl)c(Cl)c2)CC1` [CBK160718], 99%. As for `CC(C)C(NC(=O)C(C)(C)Oc1ccc(Cl)cc1)C(=O)O` (centres unmarked) [CBK266138], the viability at 28.5 h, 10 µM came to 94.5%.

On to `Cc1ccc(C)c(C2CCCN2C(=O)Cn2cccc(C(=O)NCc3ccccc3)c2=O)c1` (centres unmarked) [CBK286062], for which the viability at 28.5 h, 10 µM came out at 78.5%. The figure for `O=C(O)CN1C(=O)C2(CC(=O)N(Cc3ccccc3)C2=O)c2cc(F)ccc21` (centres unmarked) [CBK076173] is 99.3%; for `CCOCCn1c(N2CC(C)CC(C)C2)nc2c1c(=O)[nH]c(=O)n2C` (centres unmarked) [CBK306200] it is 83.6%; for `Cc1cc(CN(C)Cc2c(-c3ccccc3)nn(C)c2C)n[nH]1` [CBK281707] it is 88.8%. The figure for `Cc1noc([C@@H]2C[C@H](NS(=O)(=O)c3ccc(C#N)cc3)CN2C)n1` [CBK288874] is 113%; for `O=C(CN1C2CCC1CC(O)(c1ccco1)C2)N1CCCC1` (centres unmarked) [CBK284042] it is 88.7%. To `O=C(NCc1cc[nH]n1)N1CCCN(Cc2cccs2)CC1` [CBK305645] belongs 82%; to `CN(CCc1cn[nH]c1)C(=O)CCc1ccc(Cl)cc1` [CBK283183], 91.1%; to `O=C1CC(c2ccc(F)cc2)CC(=O)C1=CNCCN1CCN(C(=S)Nc2ccccc2)CC1` (centres unmarked) [CBK264784], 94.1%. As to `NCC1CCN(c2cc(C(F)(F)F)c3scc(C(=O)NCc4cccc(F)c4F)c3n2)CC1` [CBK036391T], the viability at 28.5 h, 10 µM came out at 71.6%. To `CC(C)(C)c1ccccc1[S+]([O-])c1cc2c(N3CCNCC3)nccc2s1` (centres unmarked) [CBK200018C] belongs 103%.

Regarding `CN(CC(=O)N1CCN(Cc2ccc3c(c2)OCO3)CC1)S(=O)(=O)c1ccc2ccccc2c1` [CBK267016], the viability at 28.5 h, 10 µM was found to be 108%. To `CN(CC(=O)Nc1ccc([N+](=O)[O-])cc1)S(=O)(=O)c1ccc2ccccc2c1` [CBK267422] belongs 92.7%; to `COc1ccc(-c2cc(C(F)(F)F)nc(SCC(=O)N(C)c3ccccc3)n2)cc1OC` [CBK267628], 112%.

Take `COCCN(C)C(=O)c1cn2cc(-c3cc(C)oc3C)n(C)c(=O)c2n1` [CBK306605]: the viability at 28.5 h, 10 µM was determined as 80.5%.

As to `CSc1nn(C)c(=O)c2c3c(sc12)CCC3` [CBK019796], the viability at 28.5 h, 10 µM came to 83.7%. To `O=C/C(=C\Nc1ccc(S(=O)(=O)N2CCCCC2)cc1)c1nc2ccccc2o1` [CBK262281] belongs 99.2%; to `O=C(Nc1nc2c(s1)CCc1ccccc1-2)C1CC1` [CBK287330], 85.3%.

Turning to `O=C(CSc1nnc(C2CC2)o1)Nc1ccc(CN2CCOCC2)cc1` [CBK305015], the viability at 28.5 h, 10 µM was found to be 86%. To `Cc1ccc2c(c1)c(NC(=O)OC(C)C)nn2Cc1cc2c(cc1Cl)OCO2` [CBK048652] belongs 99.9%; to `Nc1nc2c(O)cccc2s1` [CBK003892B], 85.6%; to `Nc1cc(Cl)nc(SCC2CCCCC2)n1` [CBK007970], 93.2%. The figure for `Cc1ccc2[nH]c([C@H]3CCN(C(=O)NC(C)C)C3)nc2c1` [CBK289375] is 90.8%; for `Oc1cc(C(F)(F)F)nc(SCc2ccc(Cl)cc2)n1` [CBK002305] it is 106%. As to `O=C1C2(Cc3ccccc3)CN3CN(C2)CC1(Cc1ccccc1)C3` [CBK261341], the viability at 28.5 h, 10 µM amounted to 89.9%. The figure for `COC(=O)CCc1ccc(S(=O)(=O)N2CCCN(Cc3cccc(Cl)c3Cl)CC2)cc1` [CBK062988] is 93.5%; for `Cn1c(SCC(=O)c2ccc(O)c(O)c2)nnc1-c1ccccc1` [CBK262544] it is 81.5%. With `Cc1ccc(OCCSc2nnc(N)[nH]2)cc1` [CBK269334], the viability at 28.5 h, 10 µM is 98.9%. To `O=C(CSc1nnc(-c2ccc(Cl)cc2Cl)o1)c1ccc2c(c1)OCCO2` [CBK268839] belongs 113%; to `O=C(Cc1ccccc1)NC(Cc1ccc(Cl)cc1)C(=O)O` (centres unmarked) [CBK286976], 92.7%.

In the case of `CC(N(C)CC(=O)NCc1ccc(OCC(N)=O)cc1)C(C)(C)C` (centres unmarked) [CBK306338], the viability at 28.5 h, 10 µM came to 99.2%. The figure for `FC(F)(F)c1ccc(-c2nnc(C3CC3)o2)cc1` [CBK021992] is 86.7%.
